Data as given in patent US7910751B2, “Heterocyclidene acetamide derivative” (Mochida Pharmaceutical Co., Ltd., priority 2005, dated 2011).

Molecular target: T1, human TRPV1 (Homo sapiens, UniProt Q8NER1)
T1 construct: expressed in transfected cells; host or cells: CHO-K1
Assay: Measurement of capsaicin-induced Ca influx in human TRPV1 transformed CHO cell line using FDSS-6000
Format: cell-based
Settings: concentration at which the capsaicin concentration-reaction curve is shifted two times to the right, human TRPV1 transformed CHO cells

T1 sequence (Q8NER1 whole entry): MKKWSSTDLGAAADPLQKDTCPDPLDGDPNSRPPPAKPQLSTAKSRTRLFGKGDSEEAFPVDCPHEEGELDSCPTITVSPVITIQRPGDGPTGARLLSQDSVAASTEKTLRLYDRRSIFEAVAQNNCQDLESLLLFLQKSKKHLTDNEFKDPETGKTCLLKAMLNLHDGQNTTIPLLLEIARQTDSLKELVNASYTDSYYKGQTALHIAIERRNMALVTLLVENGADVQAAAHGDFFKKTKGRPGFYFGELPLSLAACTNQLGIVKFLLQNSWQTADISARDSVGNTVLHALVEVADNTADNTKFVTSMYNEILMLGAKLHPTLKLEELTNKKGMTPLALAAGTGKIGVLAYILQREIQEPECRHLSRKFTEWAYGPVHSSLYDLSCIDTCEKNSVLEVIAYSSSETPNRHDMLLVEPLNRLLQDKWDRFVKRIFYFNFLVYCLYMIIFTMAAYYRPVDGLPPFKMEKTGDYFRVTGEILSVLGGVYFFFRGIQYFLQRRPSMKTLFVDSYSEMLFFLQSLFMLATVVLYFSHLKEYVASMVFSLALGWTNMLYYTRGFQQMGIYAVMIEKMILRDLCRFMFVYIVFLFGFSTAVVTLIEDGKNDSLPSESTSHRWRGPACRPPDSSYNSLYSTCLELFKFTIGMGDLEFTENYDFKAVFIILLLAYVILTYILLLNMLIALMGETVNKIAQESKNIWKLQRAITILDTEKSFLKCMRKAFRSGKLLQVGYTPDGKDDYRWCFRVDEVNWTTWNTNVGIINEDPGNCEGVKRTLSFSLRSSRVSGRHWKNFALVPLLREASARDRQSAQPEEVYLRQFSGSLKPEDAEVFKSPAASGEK

SMILES	A2 VALUE
O=C(/C=C1\CCCOc2cc(C(F)(F)F)ccc21)Nc1cccc2c1CC(O)C(O)C2 (stereo not drawn) [Example 66, (E)-2-(8-trifluoromethyl-3,4-dihydrobenzo[b]oxepin-5-(2H)-ylidene)-N-(cis-6,7-dihydroxy-5,6,7,8-tetrahydronaphthalen-1-yl)acetamide]	A (compounds of the present invention having an A2 value of less than 100 nM are represented by A)
O=C(/C=C1\CCCOc2cc(C(F)(F)F)ccc21)Nc1cccc2c1CC(O)C(=O)N2 (stereo not drawn) [Example 67, (E)-2-(8-trifluoromethyl-3,4-dihydrobenzo[b]oxepin-5(2H)-ylidene)-N-(3-hydroxy-2-oxo-1,2,3,4-tetrahydroquinolin-5-yl)acetamide]	A (compounds of the present invention having an A2 value of less than 100 nM are represented by A)
O=C(/C=C1\CCCOc2cc(C(F)(F)F)ccc21)Nc1cccc2c1CC(O)CN2 (stereo not drawn) [Example 68, (E)-2-(8-trifluoromethyl-3,4-dihydrobenzo[b]oxepin-5(2H)-ylidene)-N-(3-hydroxy-1,2,3,4-tetrahydroquinolin-5-yl)acetamide]	A (compounds of the present invention having an A2 value of less than 100 nM are represented by A)
CN1CC(O)Cc2c(NC(=O)/C=C3\CCCOc4cc(C(F)(F)F)ccc43)cccc21 (stereo not drawn) [Example 69, (E)-2-(8-trifluoromethyl-3,4-dihydrobenzo[b]oxepin-5-(2H)-ylidene)-N-(1-methyl-3-hydroxy-1,2,3,4-tetrahydroquinolin-5-yl)acetamide]	A (compounds of the present invention having an A2 value of less than 100 nM are represented by A)
O=C(/C=C1\CCOc2cc(C(F)(F)F)ccc21)Nc1cccc2c1CC(O)CC2 (stereo not drawn) [Example 70, (E)-2-(7-trifluoromethyl-chroman-4-ylidene)-N-(7-hydroxy-5,6,7,8-tetrahydronaphthalen-1-yl)acetamide]	A (compounds of the present invention having an A2 value of less than 100 nM are represented by A)
O=C(/C=C1\CCOc2cc(C(F)(F)F)ccc21)Nc1cccc2c1CC(O)CC2 (stereo not drawn) [Example 71, (E)-2-(7-trifluoromethyl-chroman-4-ylidene)-N-(7-hydroxy-5,6,7,8-tetrahydronaphthalen-1-yl)acetamide]	A (compounds of the present invention having an A2 value of less than 100 nM are represented by A)
O=C(/C=C1\CCOc2cc(C(F)(F)F)ccc21)Nc1cccc2c1CC(O)CC2 (stereo not drawn) [Example 72, (E)-2-(7-trifluoromethyl-chroman-4-ylidene)-N-(7-hydroxy-5,6,7,8-tetrahydronaphthalen-1-yl)acetamide]	A (compounds of the present invention having an A2 value of less than 100 nM are represented by A)
O=C(/C=C1\CCN(C(=O)C2CCCC2)c2cc(C(F)(F)F)ccc21)Nc1ccc2cccnc2c1 [Example 73, (E)-2-(1-cyclopentanecarbonyl-7-trifluoromethyl-2,3-dihydroquinolin-4(1H)-ylidene)-N-(quinolin-7-yl)acetamide]	A (compounds of the present invention having an A2 value of less than 100 nM are represented by A)
CCCCC(=O)N1CC/C(=C\C(=O)Nc2cccc3ccc(O)cc23)c2ccc(C(F)(F)F)cc21 [Example 74, (E)-2-(1-pentanoyl-7-trifluoromethyl-2,3-dihydroquinolin-4(1H)-ylidene)-N-(7-hydroxynaphthalen-1-yl)acetamide]	A (compounds of the present invention having an A2 value of less than 100 nM are represented by A)
O=C(/C=C1\CCN(C(=O)C2CCC2)c2cc(C(F)(F)F)ccc21)Nc1ccc2cccnc2c1 [Example 75, (E)-2-(1-cyclobutanecarbonyl-7-trifluoromethyl-2,3-dihydroquinolin-4(1H)-ylidene)-N-(quinolin-7-yl)acetamide]	A (compounds of the present invention having an A2 value of less than 100 nM are represented by A)
CC(C)(C)CC(=O)N1CC/C(=C\C(=O)Nc2ccc3cccnc3c2)c2ccc(C(F)(F)F)cc21 [Example 76, (E)-2-(1-(3,3-dimethylbutanoyl)-7-trifluoromethyl-2,3-dihydroquinolin-4(1H)-ylidene)-N-(quinolin-7-yl)acetamide]	A (compounds of the present invention having an A2 value of less than 100 nM are represented by A)
CC(C)CC(=O)N1CC/C(=C\C(=O)Nc2ccc3cccnc3c2)c2ccc(C(F)(F)F)cc21 [Example 77, (E)-2-(1-(3-methylbutanoyl)-7-trifluoromethyl-2,3-dihydroquinolin-4(1H)-ylidene)-N-(quinolin-7-yl)acetamide]	A (compounds of the present invention having an A2 value of less than 100 nM are represented by A)
CC(C)CCC(=O)N1CC/C(=C\C(=O)Nc2ccc3cccnc3c2)c2ccc(C(F)(F)F)cc21 [Example 78, (E)-2-(1-(4-methylpentanoyl)-7-trifluoromethyl-2,3-dihydroquinolin-4(1H)-ylidene)-N-(quinolin-7-yl)acetamide]	A (compounds of the present invention having an A2 value of less than 100 nM are represented by A)
CCC(C)CC(=O)N1CC/C(=C\C(=O)Nc2ccc3cccnc3c2)c2ccc(C(F)(F)F)cc21 (stereo not drawn) [Example 79, (E)-2-(1-(3-methylpentanoyl)-7-trifluoromethyl-2,3-dihydroquinolin-4(1H)-ylidene)-N-(quinolin-7-yl)acetamide]	A (compounds of the present invention having an A2 value of less than 100 nM are represented by A)
CCCC(C)C(=O)N1CC/C(=C\C(=O)Nc2ccc3cccnc3c2)c2ccc(C(F)(F)F)cc21 (stereo not drawn) [Example 80, (E)-2-(1-(2-methylpentanoyl)-7-trifluoromethyl-2,3-dihydroquinolin-4(1H)-ylidene)-N-(quinolin-7-yl)acetamide]	A (compounds of the present invention having an A2 value of less than 100 nM are represented by A)
CCCC(C)(C)C(=O)N1CC/C(=C\C(=O)Nc2ccc3cccnc3c2)c2ccc(C(F)(F)F)cc21 [Example 81, (E)-2-(1-(2,2-dimethylpentanoyl)-7-trifluoromethyl-2,3-dihydroquinolin-4(1H)-ylidene)-N-(quinolin-7-yl)acetamide]	A (compounds of the present invention having an A2 value of less than 100 nM are represented by A)
O=C(/C=C1\CCN(C(=O)C2CCCC2)c2cc(C(F)(F)F)ccc21)Nc1cccc2c1CC(O)CC2 (stereo not drawn) [Example 82, (E)-2-(1-cyclopentanecarbonyl-7-trifluoromethyl-2,3-dihydroquinolin-4(1H)-ylidene)-N-(7-hydroxy-5,6,7,8-tetrahydronaphthalen-1-yl)acetamide]	A (compounds of the present invention having an A2 value of less than 100 nM are represented by A)
CCCCC(=O)N1CC/C(=C\C(=O)Nc2cccc3c2CC(O)CC3)c2ccc(C(F)(F)F)cc21 (stereo not drawn) [Example 83, (E)-2-(1-pentanoyl-7-trifluoromethyl-2,3-dihydroquinolin-4(1H)-ylidene)-N-(7-hydroxy-5,6,7,8-tetrahydronaphthalen-1-yl)acetamide]	A (compounds of the present invention having an A2 value of less than 100 nM are represented by A)
